In PubChem BioAssay AID330 (DTP/NCI, 2004):
Several values for one entry are separate records, joined by “and”; a condition that tells them apart may be missing. Equal values may be shown once. Inconclusive results and toxic doses are left out. The calls were made as follows: active = survival T/C of 150% or more; inactive = T/C below 125% in these data.

System: P388 leukemia ip, CD2F1 mice, survival T/C
Experiment: NCI In Vivo Anticancer Drug Screen. Data for tumor model P388 Leukemia (intraperitoneal) in CD2F1 (CDF1) mice
Details: endpoint: median survival time, higher = longer survival
Outline: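 Mice carrying the transplanted tumor received test compound or vehicle. Survival was recorded in each group, and the value is the treated-group measurement divided by that of the vehicle-treated control group.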

[1] = dose: 50.0 mg/kg/injection, schedule: Q01DX009 (ip), vehicle: saline with Tween-80

Measured: T/C

ClCC[N+]12CC[N+](CCCl)(CC1)C2
234 % of control and 90 % of control: dose: 200.0 mg/kg/injection, schedule: Q01DX009 (ip), vehicle: saline
active: dose: 30.0 mg/kg/injection, schedule: Q01DX005 (ip), vehicle: water 163 % of control | dose: 44.0 mg/kg/injection, schedule: Q01DX009 (ip), vehicle: water 158 % of control | dose: 47.42 mg/kg/injection, schedule: Q01DX009 (ip), vehicle: water 160 % of control | dose: 50.0 mg/kg/injection, schedule: Q01DX009 (ip), vehicle: saline 162 % of control and 180 % of control | dose: 60.0 mg/kg/injection, schedule: Q01DX005 (ip), vehicle: water 154 % of control and 170 % of control | dose: 60.0 mg/kg/injection, schedule: Q01DX009 (ip), vehicle: water 155 % of control | dose: 66.0 mg/kg/injection, schedule: Q01DX009 (ip), vehicle: water 167 % of control | dose: 71.12 mg/kg/injection, schedule: Q01DX009 (ip), vehicle: clinical formulation 173 % of control | dose: 71.12 mg/kg/injection, schedule: Q01DX009 (ip), vehicle: water 177 % of control and 165 % of control | dose: 100.0 mg/kg/injection, schedule: Q01DX005 (ip), vehicle: water 155 % of control | dose: 100.0 mg/kg/injection, schedule: Q01DX009 (ip), vehicle: saline with Tween-80 189 % of control and 198 % of control and 213 % of control | dose: 100.0 mg/kg/injection, schedule: Q01DX009 (ip), vehicle: saline 153 % of control and 163 % of control and 182 % of control | dose: 100.0 mg/kg/injection, schedule: Q04DX003 (ip), vehicle: distilled water + Tween-80 151 % of control | dose: 100.0 mg/kg/injection, schedule: Q04DX003 (ip), vehicle: saline with Tween-80 154 % of control | dose: 106.68 mg/kg/injection, schedule: Q01DX009 (ip), vehicle: water 214 % of control | dose: 120.0 mg/kg/injection, schedule: Q01DX005 (ip), vehicle: water 184 % of control | dose: 160.0 mg/kg/injection, schedule: Q01DX009 (ip), vehicle: water 231 % of control | dose: 200.0 mg/kg/injection, schedule: Q01DX009 (ip), vehicle: water 180 % of control | dose: 200.0 mg/kg/injection, schedule: Q04DX003 (ip), vehicle: distilled water + Tween-80 171 % of control | dose: 200.0 mg/kg/injection, schedule: Q04DX003 (ip), vehicle: saline with Tween-80 186 % of control and 190 % of control | dose: 264.0 mg/kg/injection, schedule: Q04DX003 (ip), vehicle: saline with Tween-80 227 % of control | dose: 400.0 mg/kg/injection, schedule: Q01DX001 (ip), vehicle: saline with Tween-80 159 % of control
120 % of control and 233 % of control: dose: 200.0 mg/kg/injection, schedule: Q01DX009 (ip), vehicle: saline with Tween-80
inactive: dose: 6.25 mg/kg/injection, schedule: Q01DX006 (ip), vehicle: water 120 % of control | dose: 6.25 mg/kg/injection, schedule: Q01DX009 (ip), vehicle: distilled water + Tween-80 117 % of control | dose: 6.25 mg/kg/injection, schedule: Q01DX009 (ip), vehicle: water 115 % of control [middle of 4 runs] | dose: 7.5 mg/kg/injection, schedule: Q01DX005 (iv), vehicle: clinical formulation 105 % of control | dose: 7.5 mg/kg/injection, schedule: Q01DX005 (iv), vehicle: water 100 % of control and 106 % of control | dose: 12.5 mg/kg/injection, schedule: Q01DX006 (ip), vehicle: water 101 % of control | dose: 12.5 mg/kg/injection, schedule: Q01DX009 (ip), vehicle: saline 105 % of control | dose: 12.5 mg/kg/injection, schedule: Q01DX009 (ip), vehicle: water 100 % of control and 104 % of control and 107 % of control | dose: 15.0 mg/kg/injection, schedule: Q01DX005 (iv), vehicle: clinical formulation 105 % of control | dose: 15.0 mg/kg/injection, schedule: Q01DX005 (iv), vehicle: water 99 % of control and 110 % of control | dose: 15.0 mg/kg/injection, schedule: Q01DX009 (ip), vehicle: clinical formulation 100 % of control | dose: 15.0 mg/kg/injection, schedule: Q01DX009 (ip), vehicle: water 99 % of control and 116 % of control | dose: 20.0 mg/kg/injection, schedule: Q01DX005 (ip), vehicle: water 106 % of control | dose: 21.08 mg/kg/injection, schedule: Q01DX009 (ip), vehicle: water 115 % of control and 103 % of control | dose: 23.71 mg/kg/injection, schedule: Q01DX005 (iv), vehicle: clinical formulation 105 % of control | dose: 23.71 mg/kg/injection, schedule: Q01DX005 (iv), vehicle: water 110 % of control and 105 % of control | dose: 25.0 mg/kg/injection, schedule: Q01DX006 (ip), vehicle: water 113 % of control | dose: 25.0 mg/kg/injection, schedule: Q01DX009 (ip), vehicle: water 109 % of control and 115 % of control | dose: 30.0 mg/kg/injection, schedule: Q01DX001 (ip), vehicle: water 113 % of control | dose: 30.0 mg/kg/injection, schedule: Q01DX001 (iv), vehicle: water 109 % of control | dose: 30.0 mg/kg/injection, schedule: Q01DX005 (iv), vehicle: clinical formulation 109 % of control | dose: 30.0 mg/kg/injection, schedule: Q01DX005 (iv), vehicle: water 113 % of control | dose: 30.0 mg/kg/injection, schedule: Q01DX005 (oral), vehicle: water 110 % of control | dose: 30.0 mg/kg/injection, schedule: Q01DX009 (ip), vehicle: clinical formulation 100 % of control | dose: 30.0 mg/kg/injection, schedule: Q01DX009 (ip), vehicle: water 123 % of control | dose: 30.0 mg/kg/injection, schedule: Q01DX009 (oral), vehicle: water 120 % of control | dose: 31.61 mg/kg/injection, schedule: Q01DX009 (ip), vehicle: water 119 % of control | dose: 35.56 mg/kg/injection, schedule: Q01DX005 (iv), vehicle: clinical formulation 111 % of control | dose: 35.56 mg/kg/injection, schedule: Q01DX005 (iv), vehicle: water 110 % of control and 106 % of control | dose: 40.0 mg/kg/injection, schedule: Q01DX005 (ip), vehicle: water 114 % of control | dose: 50.0 mg/kg/injection, schedule: Q01DX006 (ip), vehicle: water 123 % of control | [1] 100 % of control | dose: 50.0 mg/kg/injection, schedule: Q01DX009 (ip), vehicle: water 113 % of control and 120 % of control | dose: 50.0 mg/kg/injection, schedule: Q04DX003 (ip), vehicle: distilled water + Tween-80 124 % of control | dose: 53.34 mg/kg/injection, schedule: Q01DX005 (iv), vehicle: water 115 % of control and 111 % of control | dose: 60.0 mg/kg/injection, schedule: Q01DX001 (ip), vehicle: water 115 % of control | dose: 60.0 mg/kg/injection, schedule: Q01DX001 (iv), vehicle: water 117 % of control | dose: 60.0 mg/kg/injection, schedule: Q01DX001 (oral), vehicle: water 109 % of control | dose: 60.0 mg/kg/injection, schedule: Q01DX005 (iv), vehicle: clinical formulation 120 % of control | dose: 60.0 mg/kg/injection, schedule: Q01DX005 (oral), vehicle: water 119 % of control | dose: 80.0 mg/kg/injection, schedule: Q01DX005 (iv), vehicle: clinical formulation 122 % of control | dose: 80.0 mg/kg/injection, schedule: Q01DX005 (iv), vehicle: water 119 % of control and 112 % of control | dose: 100.0 mg/kg/injection, schedule: Q01DX009 (oral), vehicle: saline with Tween-80 112 % of control | dose: 120.0 mg/kg/injection, schedule: Q01DX001 (oral), vehicle: water 114 % of control | dose: 150.0 mg/kg/injection, schedule: Q01DX009 (ip), vehicle: water 99 % of control | dose: 178.0 mg/kg/injection, schedule: Q01DX001 (ip), vehicle: saline with Tween-80 124 % of control | dose: 240.0 mg/kg/injection, schedule: Q01DX001 (oral), vehicle: water 117 % of control | dose: 240.0 mg/kg/injection, schedule: Q01DX009 (ip), vehicle: water 87 % of control

O=c1ccc(=O)n(-c2ccccc2)[nH]1
inactive: dose: 6.25 mg/kg/injection, schedule: Q01DX009 (ip), vehicle: saline with Tween-80 114 % of control | dose: 12.5 mg/kg/injection, schedule: Q01DX009 (ip), vehicle: saline with Tween-80 100 % of control | dose: 25.0 mg/kg/injection, schedule: Q01DX009 (ip), vehicle: saline with Tween-80 118 % of control | [1] 119 % of control
